# Laboratory results: US10660874B2, “Ecteinamycin, compositions and uses thereof” (Wisconsin Alumni Research Foundation, priority 2014, dated 2020)
# Key:
# [1] = test system: C. difficile (ATCC BAA-1870); assay: MIC, anaerobic dilution antimicrobial susceptibility test; format: cell-based; conditions: Clostridioides difficile
# Experimental: (§1) Ecteinamycin was tested for antibacterial activity against C. difficile (ATCC BAA-1870), MRSA (ATCC #33591), MSSA (ATCC #29213), E. coli (ATCC #25922), P. aeruginosa (ATCC #27853), and VRE (ATCC), and MICs were determined using a dilution antimicrobial susceptibility test for aerobic (MRSA, MSSA, E. coli, P. aeruginosa, and VRE) and anaerobic (C. difficile) bacteria. Ecteinamycin was dissolved in DMSO, serially diluted to 10 concentrations (0.0313-32 μg/mL), and tested in a 96-well plate. […] Ecteinamycin and vancomycin were tested in triplicate. Six untreated media controls were included on each plate. For MRSA, MSSA, E. coli, and P. aeruginosa, the plates were incubated at 33° C. for 18 h. For C. difficile, the plate was incubated at 36° C. for 48 h anaerobically and then read visually using a mirror apparatus. All manipulations to the plate were done inside the anaerobe chamber. The MIC was determined as the lowest concentration that inhibited visible growth.
# [2] = Lethality of intravenous injection in mice; format: in vivo; conditions: 5 mg/kg IV
# Experimental: Eight-to-nine-week-old FVB female mice weighing 20.5 to 25.6 g were used for all studies. Animals were maintained in accordance with the American Association for Accreditation of Laboratory Care criteria. Animal studies were approved by the University of Wisconsin Animal Care Committee.
# Ecteinamycin was formulated with polyethylene glycol (PEG) 300, 25 mM Tris (1:1), pH 8.9. Mice were treated orally at 5 mg/kg or by retro-orbital intravenous injection at 2.5 mg/kg. Retro-orbital intravenous injection at 5 mg/kg was lethal. After 30 mins and 1 h, approximately 400 μL of blood was collected from the chest cavity in BD microtainer tubes with lithium heparin. Blood was centrifuged at 10,000 rpm for 10 mins Fifty μL of supernatant was added to 200 μL of acetonitrile (containing 0.1% formic acid) in a new polypropylene tube, vortexed for 1 min, and centrifuged for 10 mins at 14,000 rpm at 4° C. One hundred μL was transferred to a 96 well polypropylene microplate, 100 μL of H2O was added, and the plate was covered and shaken for 1 min and placed in the autosampler for analysis. […] Sample quantitation was determined by weighted (R^2) linear regression using a 9-point curve. […] The % oral bioavailability was calculated from the concentration of ecteinamycin (adjusted for dose) in plasma between oral and IV dose: [ecteinamycinoral]/[ecteinamycinIV]×100. […]
# [3] = test system: P. aeruginosa (ATCC #27853); assay: MIC, dilution antimicrobial susceptibility test; format: cell-based; conditions: Pseudomonas aeruginosa, ATCC27853, 33° C., 18 h
# Experimental: as §1
# [4] = test system: E. coli (ATCC #25922); assay: MIC, dilution antimicrobial susceptibility test; format: cell-based; conditions: Escherichia coli, ATCC25922, 33° C., 18 h
# Experimental: as §1
# [5] = test system: E. coli deletion mutants; assay: Chemical genomic profiling in E. coli deletion mutants; format: cell-based, Escherichia coli
# Experimental: Chemical genomic profiling was also performed in Escherichia coli to further investigate the mechanism of action of ecteinamycin. Similar to the chemical genomic profiling with yeast, ecteinamcyin was screened against over 6,000 deletion mutant E. coli strains, genomic DNA was extracted, and mutant-specific DNA barcodes were amplified and sequenced by Illumina sequencing. Ecteinamycin sensitive and resistant mutants were determined by quantification of DNA-barcodes in order to provide a chemical genomic profile to aid in evaluating the mechanism of action (Table 7).
# [6] = test system: S. aureus (ATCC #29213) cells; assay: Membrane depolarization assay (DiOC2(3), flow cytometry); format: cell-based; conditions: 6 μg/mL, 15 minutes
# Experimental: S. aureus (ATCC #29213) cells were grown to log phase (14 h) in Mueller Hinton Broth cation-adjusted (MHB50) and were diluted to 0.07 OD600 with media. One mL aliquots were transferred to 1.5 mL centrifuge tubes and treated with the following in triplicate: 10 μL DMSO (control), 10 μL of 600 μg/mL ecteinamycin, 10 μL of 3.2 mg/mL ecteinamycin (1), 10 μL of 500 μM carbonyl cyanide m-chlorophenythydrazone (CCCP), and 10 μL of 3.2 mg/mL rifampicin. Additionally, each tube received 10 μL of 3 mM DiOC2(3) (3,3′-diethyloxacarbocyanine iodide). The tubes were shaken for 15 minutes at room temperature. The cells were then analyzed with a FACSCalibur (BD Biosciences) flow cytometer and CellQuestPro software (BD Biosciences). Collected data represent the geometric means of fluorescence of 40,000 gated events.
# Flow cytometry was used to determine if ecteinamycin, like other polyether ionophore antibiotics, depolarizes cell membranes. 3,3′-diethyloxacarbocyanine iodide (“DiOC2(3)”) fluoresces green in bacterial cells but shifts to red when the cell membrane is depolarized. Therefore, the ratio of red to green fluorescence is indicative of the membrane potential. S. aureus ATCC […] cells were treated with ecteinamycin at concentrations of 6 and 32 μg/mL.
# All cells except the DMSO negative control were treated with DiOC2(3) and analyzed by flow cytometry. […]
# [7] = test system: S. cerevisiae; assay: MIC against S. cerevisiae; format: cell-based; conditions: Saccharomyces cerevisiae
# [8] = test system: MSSA (ATCC #29213); assay: MIC, dilution antimicrobial susceptibility test; format: cell-based, Methicillin-sensitive Staphylococcus aureus; conditions: Methicillin-sensitive Staphylococcus aureus (MSSA); 33° C., 18 h; read-out: MIC
# Experimental: as §1
structure (smiles),measurement,setting,value
C=C1OC(=O)C(C(=O)CC2OC(C(C)C(O)C(CC)C(=O)C(C)(O)C3CCC(CC)(C4CCC(O)(C(C)OC)C(C)O4)O3)C(C)CC2C)=C1O (stereo not shown) [ecteinamycin],MIC,[1]; ATCCBAA1870,≤ 0.031 µg/mL
same,MIC,"[1]; ATCCBAA1870, 36° C., 48 h anaerobically",≤ 0.0313 µg/mL
same,lethality of retro-orbital intravenous injection,[2],lethal
same,MIC,[3],8 µg/mL
same,MIC,[4],16 µg/mL
same,Fold Change in abundance relative to solvent control,[5]; acrA deletion mutant,0.087
same,Fold Change in abundance relative to solvent control,[5]; acrB deletion mutant,0.189
same,Fold Change in abundance relative to solvent control,[5]; atpA deletion mutant,0.280
same,Fold Change in abundance relative to solvent control,[5]; atpF deletion mutant,0.207
same,Fold Change in abundance relative to solvent control,[5]; csgE deletion mutant,0.369
same,Fold Change in abundance relative to solvent control,[5]; dksA deletion mutant,0.187
same,Fold Change in abundance relative to solvent control,[5]; fis deletion mutant,0.416
same,Fold Change in abundance relative to solvent control,[5]; hupA deletion mutant,0.518
same,Fold Change in abundance relative to solvent control,[5]; kdpD deletion mutant,0.374
same,Fold Change in abundance relative to solvent control,[5]; ldcA deletion mutant,0.341
same,Fold Change in abundance relative to solvent control,[5]; rpoS deletion mutant,0.350
same,Fold Change in abundance relative to solvent control,[5]; sapB deletion mutant,0.241
same,Fold Change in abundance relative to solvent control,[5]; sapD deletion mutant,0.197
same,Fold Change in abundance relative to solvent control,[5]; trkA deletion mutant,0.145
same,Fold Change in abundance relative to solvent control,[5]; ycdR deletion mutant,0.287
same,Fold Change in abundance relative to solvent control,[5]; yhjK deletion mutant,0.485
same,Fold Change in abundance relative to solvent control,[5]; yraP deletion mutant,0.365
same,membrane depolarization (ratio of red to green fluorescence),[6],demonstrated membrane depolarization
same,MIC,[7],8 µg/mL
same,MIC,[8],0.125 µg/mL
